The results in this text go back to patent US12297203B2, “Pyrrolopyrimidine ITK inhibitors” (ACLARIS THERAPEUTICS, INC., priority 2018, dated 2025).

Read-outs that look alike come from different tables or passages of the source.

Assay [1] deals with ITK (Homo sapiens (Human), UniProt Q08881). In words: ITK inhibitor binding potency (LanthaScreen competitive binding assay). The conditions noted are these: read-out: ITK Inh. IC50. The method in brief:
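TR-FRET tracer displacement: 10 nM GST-ITK, 2 nM Eu-anti-GST, 50 nM tracer-236 in HEPES pH 7.5, MgCl2, 2% DMSO; 11 points, 20 µM–0.34 nM. Run with or without 2 h compound–ITK preincubation before tracer; IC50 by 4-parameter fit of emission ratio.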
For orientation: In TR-FRET formats the signal depends on donor and acceptor labels being close together.

The target of assay [2] is JAK3 (Homo sapiens (Human), UniProt P52333). Kind of assay: JAK3 enzyme activity assay (Caliper mobility shift). The conditions noted are these: ATP at Km level; read-out: JAK3 Inh. IC50. The format is biochemical. The method, boiled down: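 Caliper mobility-shift assay with 2.5 nM JAK3, […] and […] (Km level) in 20 mM HEPES pH 7.5, 10 mM MgCl2, 0.01% BSA, 0.0005% Tween-20, 2% DMSO. 11-point dose-response from […] 0.34 nM; IC50 by 4-parameter logistic fit of product/substrate signal.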
Sequence of JAK3 (P52333 781-1124): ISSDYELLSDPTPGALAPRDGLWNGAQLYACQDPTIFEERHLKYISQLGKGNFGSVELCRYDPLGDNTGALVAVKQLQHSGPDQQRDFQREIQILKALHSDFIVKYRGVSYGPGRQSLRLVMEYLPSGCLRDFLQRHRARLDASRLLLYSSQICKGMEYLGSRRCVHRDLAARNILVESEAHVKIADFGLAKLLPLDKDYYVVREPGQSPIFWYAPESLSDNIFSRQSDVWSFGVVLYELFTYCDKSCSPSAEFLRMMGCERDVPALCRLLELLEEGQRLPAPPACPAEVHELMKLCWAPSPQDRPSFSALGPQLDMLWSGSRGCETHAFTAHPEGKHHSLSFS

Assay [3] relates to ITK phosphorylation of its substrate, PLCγ1, at Y783. In words: ITK target modulation assay (PLCγ1 Y783 phosphorylation, anti-CD3 stimulated Jurkat T cells). The format is cell-based. The note with it: Homo sapiens, Jurkat, anti-CD3 Dynabeads stimulation, read-out: PLC-γ Inh. IC50. The method, boiled down:
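Jurkat cells (400,000/well) were preincubated with compound for 1 h at 37 °C (0.1% DMSO final), then stimulated with anti-CD3 Dynabeads (bead:cell 2:1). Hypotonic lysates were dot-blotted and probed for phospho-PLCγ1 Y783 and total PLCγ1, with quantification by dual-channel infrared imaging.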

For assay [4], the system named is JAK1/3 phosphorylation of its substrate, STAT5, at Y694. In words: JAK1/3 target modulation assay (IL-2 stimulated STAT5 Y694 phosphorylation in PBMC). The format is cell-based. The note with it: Primary human peripheral blood mononuclear cells, IL-2 25 ng/mL, read-out: IL2-STAT5 Inh. IC50. The method in brief:
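Human PBMCs preincubated with compound for 1 h at 37 °C, then stimulated with IL-2 (25 ng/mL final) for 5 min. Cells were lysed and phospho-STAT5a,b (Y694) measured by MSD electrochemiluminescence immunoassay, single-plex or multiplex with total STAT5a,b.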

Sequence of ITK (Q08881 whole entry): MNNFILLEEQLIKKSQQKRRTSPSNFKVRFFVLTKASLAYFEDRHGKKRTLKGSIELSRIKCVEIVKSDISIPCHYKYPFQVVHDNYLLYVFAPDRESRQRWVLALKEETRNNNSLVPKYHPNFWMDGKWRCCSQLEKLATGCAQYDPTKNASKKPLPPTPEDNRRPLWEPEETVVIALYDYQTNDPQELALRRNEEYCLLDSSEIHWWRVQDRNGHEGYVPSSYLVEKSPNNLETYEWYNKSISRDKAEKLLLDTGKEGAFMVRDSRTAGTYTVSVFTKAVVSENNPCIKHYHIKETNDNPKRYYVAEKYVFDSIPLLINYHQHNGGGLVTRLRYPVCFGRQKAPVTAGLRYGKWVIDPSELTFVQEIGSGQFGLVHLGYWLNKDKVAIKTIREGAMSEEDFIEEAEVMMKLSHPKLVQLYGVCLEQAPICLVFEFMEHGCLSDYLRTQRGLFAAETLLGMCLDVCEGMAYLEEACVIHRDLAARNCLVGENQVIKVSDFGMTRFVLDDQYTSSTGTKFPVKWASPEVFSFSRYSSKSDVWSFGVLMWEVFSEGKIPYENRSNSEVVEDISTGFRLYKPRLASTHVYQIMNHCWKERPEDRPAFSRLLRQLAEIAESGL

For `C[C@H]1CC[C@@H](Nc2ncnc3[nH]cc(CC4CC4)c23)CN1C(=O)/C=C/CN(C)C` [Example 37, (E)-1-((2S,5R)-5-((5-(cyclopropylmethyl)-7H-pyrrolo[2,3-d]pyrimidin-4-yl)amino)-2-methylpiperidin-1-yl)-4-(dimethylamino)but-2-en-1-one], the IC50 (usually the concentration needed to halve the response being measured) in assay [1] was at most 10 nM; in assay [2], 10 to 100 nM; in assay [3], 100 to 1000 nM; in assay [4] (Homo sapiens, PBMC) it was over 1000 nM.

As for `C=CC(=O)N1CC(Nc2ncnc3[nH]cc(C(=O)C4CC4)c23)C1` [Example 7, 1-(3-((5-(cyclopropanecarbonyl)-7H-pyrrolo[2,3-d]pyrimidin-4-yl)amino)azetidin-1-yl)prop-2-en-1-one], the IC50 in assay [1] is 10 to 100 nM; in assay [2], over 100 nM; in assay [3], over 1000 nM; in assay [4] (Homo sapiens, PBMC), over 1000 nM.

Take `C=CC(=O)N1C[C@H](Nc2ncnc3[nH]cc(C(=O)OCCC)c23)CC[C@@H]1C` [Example 3, propyl 4-(((3R,6S)-1-acryloyl-6-methylpiperidin-3-yl)amino)-7H-pyrrolo[2,3-d]pyrimidine-5-carboxylate]: the IC50 in assay [1] was at most 10 nM; in assay [2], at most 10 nM; in assay [3] it was at most 100 nM; in assay [4] (Homo sapiens, PBMC) it was 100 to 1000 nM.

As to `C=CC(=O)N1C[C@H](Nc2ncnc3[nH]cc(C(=O)OC(C)C)c23)CC[C@@H]1C` [Example 4, isopropyl 4-(((3R,6S)-1-acryloyl-6-methylpiperidin-3-yl)amino)-7H-pyrrolo[2,3-d]pyrimidine-5-carboxylate], the IC50 is at most 10 nM in assay [1]; at most 10 nM in assay [2]; 100 to 1000 nM in assay [3]; 100 to 1000 nM in assay [4] (Homo sapiens, PBMC).

For the compound `C=CC(=O)N1C[C@H](Nc2ncnc3[nH]cc(C4CC4(F)F)c23)CC[C@@H]1C` (mixture of isomers) [Example 47, 1-((2S,5R)-5-((5-(2,2-difluorocyclopropyl)-7H-pyrrolo[2,3-d]pyrimidin-4-yl)amino)-2-methylpiperidin-1-yl)prop-2-en-1-one], the IC50 in assay [1] was at most 10 nM; in assay [2] it was at most 10 nM; in assay [3], at most 100 nM; in assay [4] (Homo sapiens, PBMC) it was at most 100 nM.

For `C=CC(=O)N1CCC(Nc2cnc3[nH]cc(C(=O)C4CC4)c3c2)CC1` [Example 98, 1-(4-((3-(cyclopropanecarbonyl)-1H-pyrrolo[2,3-b]pyridin-5-yl)amino)piperidin-1-yl)prop-2-en-1-one], the IC50 in assay [1] was over 100 nM; in assay [2] it was 10 to 100 nM; in assay [3], over 1000 nM; in assay [4] (Homo sapiens, PBMC), over 1000 nM.

Turning to `C=CC(=O)N1C[C@H](Nc2ncnc3[nH]cc([C@@H]4CC4(F)F)c23)CC[C@@H]1C(C)C` (single isomer, unassigned) [Example 64], the IC50 in assay [1] is over 100 nM; in assay [2] it was over 100 nM; in assay [3], over 1000 nM; in assay [4] (Homo sapiens, PBMC), over 1000 nM.

On to `C=CC(=O)N1C[C@H](Nc2ncnc3[nH]cc([C@H]4C[C@@H]4COC)c23)CC[C@@H]1C` (single isomer, unassigned) [Example 46], for which the IC50 was at most 10 nM in assay [1]; at most 10 nM in assay [2]; 100 to 1000 nM in assay [3]; 100 to 1000 nM in assay [4] (Homo sapiens, PBMC).

Regarding `C[C@H]1CC[C@@H](Nc2ncnc3[nH]cc([C@@H]4CC4(F)F)c23)CN1C(=O)/C=C/CN(C)C` (single isomer, unassigned) [Example 61], the IC50 is at most 10 nM in assay [1]; 10 to 100 nM in assay [2]; 100 to 1000 nM in assay [3]; over 1000 nM in assay [4] (Homo sapiens, PBMC).

With `C=CC(=O)N1C[C@@H](Nc2ncnc3[nH]cc([C@@H]4CC4(F)F)c23)CC[C@H]1C(C)C` (single isomer, unassigned) [Example 66], the IC50 in assay [1] was 10 to 100 nM; in assay [2], 10 to 100 nM; in assay [3], 100 to 1000 nM; in assay [4] (Homo sapiens, PBMC), over 1000 nM.

With `C=CC(=O)N1C[C@H](Nc2ncnc3[nH]cc(C(=O)OCC(C)C)c23)CC[C@@H]1C` [Example 16, isobutyl 4-(((3R,6S)-1-acryloyl-6-methylpiperidin-3-yl)amino)-7H-pyrrolo[2,3-d]pyrimidine-5-carboxylate], the IC50 in assay [1] is 10 to 100 nM; in assay [2], at most 10 nM; in assay [3] it was over 1000 nM; in assay [4] (Homo sapiens, PBMC), 100 to 1000 nM.

As for `C=CC(=O)N1C[C@H](Nc2ncnc3[nH]cc(C(=O)C4CCC4)c23)CC[C@@H]1C` [Example 17, 1-((2S,5R)-5-((5-(cyclobutanecarbonyl)-7H-pyrrolo[2,3-d]pyrimidin-4-yl)amino)-2-methylpiperidin-1-yl)prop-2-en-1-one], the IC50 is at most 10 nM in assay [1]; at most 10 nM in assay [2]; at most 100 nM in assay [3]; 100 to 1000 nM in assay [4] (Homo sapiens, PBMC).

For the compound `C=CC(=O)N1CCC[C@@H](Nc2ccnc3[nH]cc(C(=O)C4(C)CC4)c23)C1` [Example 14, (R)-1-(3-((3-(1-methylcyclopropane-1-carbonyl)-1H-pyrrolo[2,3-b]pyridin-4-yl)amino)piperidin-1-yl)prop-2-en-1-one], the concentration for half-maximal inhibition (IC50) in assay [1] was at most 10 nM; in assay [2], at most 10 nM; in assay [3], 100 to 1000 nM; in assay [4] (Homo sapiens, PBMC), 100 to 1000 nM.

As to `C=CC(=O)N1C[C@H](Nc2ncnc3[nH]cc([C@@H]4CC4(F)F)c23)CC[C@@H]1CC` (single isomer, unassigned) [Example 68], the IC50 in assay [1] was at most 10 nM; in assay [2] it was at most 10 nM; in assay [3], at most 100 nM; in assay [4] (Homo sapiens, PBMC), at most 100 nM.

On to `C=CC(=O)N1C[C@H](Nc2ncnc3[nH]cc(C(=O)OCC)c23)CC[C@@H]1C` [Example 2, ethyl 4-(((3R,6S)-1-acryloyl-6-methylpiperidin-3-yl)amino)-7H-pyrrolo[2,3-d]pyrimidine-5-carboxylate], for which the IC50 in assay [1] is at most 10 nM; in assay [2], at most 10 nM; in assay [3] it was 100 to 1000 nM; in assay [4] (Homo sapiens, PBMC) it was 100 to 1000 nM.

Consider `C=CC(=O)N1C[C@H](Nc2ccnc3[nH]cc([C@@H]4CC4(F)F)c23)CC[C@@H]1C` (single isomer, unassigned) [Example 74], for which the half-inhibitory concentration (IC50) was at most 10 nM in assay [1]; at most 10 nM in assay [2]; 100 to 1000 nM in assay [3]; 100 to 1000 nM in assay [4] (Homo sapiens, PBMC).

In the case of `C=CC(=O)N1CC[C@@H](Nc2ccnc3[nH]cc(C(=O)C4CC4)c23)C1` [Example 15, (R)-1-(3-((3-(cyclopropanecarbonyl)-1H-pyrrolo[2,3-b]pyridin-4-yl)amino)pyrrolidin-1-yl)prop-2-en-1-one], the IC50 in assay [1] is at most 10 nM; in assay [2], 10 to 100 nM; in assay [3] it was 100 to 1000 nM; in assay [4] (Homo sapiens, PBMC) it was over 1000 nM.

On to `C=CC(=O)N1C[C@H](Nc2ccnc3[nH]cc([C@@H]4C[C@H]4COC)c23)CC[C@@H]1C` (single isomer, unassigned) [Example 77], for which the IC50 is at most 10 nM in assay [1]; at most 10 nM in assay [2]; 100 to 1000 nM in assay [3]; 100 to 1000 nM in assay [4] (Homo sapiens, PBMC).

For `C=CC(=O)N1CCC(Nc2cnc3[nH]cc(C(=O)OCC)c3c2)CC1` [Example 96, ethyl 5-((1-acryloylpiperidin-4-yl)amino)-1H-pyrrolo[2,3-b]pyridine-3-carboxylate], the IC50 is over 100 nM in assay [1]; at most 10 nM in assay [2]; over 1000 nM in assay [3]; 100 to 1000 nM in assay [4] (Homo sapiens, PBMC).

For `C=CC(=O)N1C[C@@H](Nc2ncnc3[nH]cc([C@H]4CC4(F)F)c23)CC[C@H]1C(C)C` (single isomer, unassigned) [Example 65], the IC50 is at most 10 nM in assay [1]; at most 10 nM in assay [2]; at most 100 nM in assay [3]; 100 to 1000 nM in assay [4] (Homo sapiens, PBMC).

For the compound `C=CC(=O)N1CCC[C@@H](Nc2ncnc3[nH]cc(C(=O)[C@@H]4CCOC4)c23)C1` (single isomer, unassigned) [Example 12], the half-maximal inhibitory concentration (IC50) in assay [1] was at most 10 nM; in assay [2] it was 10 to 100 nM; in assay [3] it was over 1000 nM; in assay [4] (Homo sapiens, PBMC) it was over 1000 nM.

In the case of `C=CC(=O)N1CCC[C@@H](Nc2ncnc3[nH]cc([C@H]4C[C@@H]4COC)c23)C1` (single isomer, unassigned) [Example 25], the IC50 is at most 10 nM in assay [1], 10 to 100 nM in assay [2], 100 to 1000 nM in assay [3] and over 1000 nM in assay [4].

As for `C=CC(=O)N1C[C@@H](Nc2ncnc3[nH]cc(CC4CC4)c23)CC[C@H]1C(C)C` (single isomer, unassigned) [Example 42], the IC50 in assay [1] was at most 10 nM; in assay [2] it was at most 10 nM; in assay [3] it was 100 to 1000 nM; in assay [4] (Homo sapiens, PBMC), 100 to 1000 nM.

As for `C=CC(=O)N1C[C@H](Nc2ccnc3[nH]cc(CC4CC4)c23)CC[C@@H]1C` [Example 35, 1-((2S,5R)-5-((3-(cyclopropylmethyl)-1H-pyrrolo[2,3-b]pyridin-4-yl)amino)-2-methylpiperidin-1-yl)prop-2-en-1-one], the IC50 in assay [1] is at most 10 nM; in assay [2], at most 10 nM; in assay [3], 100 to 1000 nM; in assay [4] (Homo sapiens, PBMC) it was 100 to 1000 nM.
